Test results as given in patent US20060069132A1, “Azolecarboxamide herbicides” (priority 2004, published 2006).

Key:
barnyardgrass [1] = test: Test A pre-/postemergence herbicide test; type: in vivo, Echinochloa crus-galli
In short: (§1)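 Sandy loam soil given preemergence directed spray; plants at 2 to 10 cm, one- to two-leaf stage, sprayed to runoff postemergence, compounds in non-phytotoxic solvent with surfactant. Injury rated visually versus untreated controls after about ten greenhouse days, 0 (no effect) to 100 (complete control); dash means not tested.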

large crabgrass [2] = test: Test A pre-/postemergence herbicide test; type: in vivo, Digitaria sanguinalis
In short: as §1

giant foxtail [3] = test: Test A pre-/postemergence herbicide test; type: in vivo, Setaria faberi
In short: as §1

morningglory [4] = test: Test A pre-/postemergence herbicide test; type: in vivo, Ipomoea spp.
In short: as §1

redroot pigweed = test: Test A pre-/postemergence herbicide test; type: in vivo, Amaranthus retroflexus
In short: as §1

velvetleaf [5] = test: Test A pre-/postemergence herbicide test; type: in vivo, Abutilon theophrasti
In short: as §1

barnyardgrass [6] = test: Test B pre-/postemergence herbicide test; type: in vivo, Echinochloa crus-galli; settings: for Barnyardgrass plant response rating: postemergence
In short: (§2)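 Evaluation is visual, comparing treated with control plants on a scale where 0 means no effect and 100 means full control. Treatments were preemergence, or postemergence on seedlings 2–18 cm tall, and held 13–15 days in the greenhouse.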

Surinam grass = test: Test B pre-/postemergence herbicide test; type: in vivo, Urochloa decumbens; settings: for Surinam Grass plant response rating: postemergence
In short: (§3)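 Flooded paddy rice and barnyardgrass were treated at the 2-leaf stage; upland plantings received compound either on sown seed or on 1- to 4-leaf seedlings. All were kept 13–15 days in a greenhouse and scored visually, 0–100, relative to untreated plants.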

cocklebur = test: Test B pre-/postemergence herbicide test; type: in vivo, Xanthium strumarium; settings: for Cocklebur plant response rating: postemergence
In short: as §2

corn = test: Test B pre-/postemergence herbicide test; type: in vivo, Zea mays; settings: for Corn plant response rating: postemergence
In short: as §3

large crabgrass [7] = test: Test B pre-/postemergence herbicide test; type: in vivo, Digitaria sanguinalis; settings: for Crabgrass, Large plant response rating: postemergence
In short: as §3

giant foxtail [8] = test: Test B pre-/postemergence herbicide test; type: in vivo, Setaria faberi; settings: for Foxtail, Giant plant response rating: postemergence
In short: as §3

lambsquarters = test: Test B pre-/postemergence herbicide test; type: in vivo, Chenopodium album; settings: for Lambsquarters plant response rating: postemergence
In short: as §3

morningglory [9] = test: Test B pre-/postemergence herbicide test; type: in vivo, Ipomoea coccinea; settings: for Morningglory plant response rating: postemergence
In short: as §2

pigweed = test: Test B pre-/postemergence herbicide test; type: in vivo, Amaranthus retroflexus; settings: for Pigweed plant response rating: postemergence
In short: as §3

rice [10] = test: Test B pre-/postemergence herbicide test; type: in vivo, Oryza sativa; settings: 0 = no effect, 100 = complete control, preemergence
In short: as §2

velvetleaf [11] = test: Test B pre-/postemergence herbicide test; type: in vivo, Abutilon theophrasti; settings: for Velvetleaf plant response rating: postemergence
In short: as §3

blackgrass = test: Test B postemergence herbicide test; type: in vivo, Alopecurus myosuroides; settings: postemergence
In short: (§4)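 Each value is a visual 0–100 response rating taken against controls 13 to 15 days after treatment in the greenhouse. Plants received formulated chemical postemergence at the 1- to 4-leaf stage or, in flooded paddy, at the 2-leaf stage.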

wheat = test: Test B postemergence herbicide test; type: in vivo, Triticum aestivum; design: key to Wheat plant response rating: 0 = no effect, 100 = complete control; settings: postemergence
In short: as §4

wild oat = test: Test B postemergence herbicide test; type: in vivo, Avena fatua; settings: postemergence
In short: as §4

rice [12] = test: Test B flooded paddy test; type: in vivo, Oryza sativa; settings: 1000 g ai/ha, scale 0 to 100 (0 no effect, 100 complete control)
In short: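 After treating 2-leaf paddy plants or 2–18 cm postemergence plants (1 to 4 leaves) with formulated chemical, researchers kept them in a greenhouse for 13–15 days. Effects were judged visually versus controls: 0 indicates none, 100 total control.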

[13] = tested on: small flower umbrella sedge; test: Test B flooded paddy test; type: in vivo, Cyperus difformis; settings: 1000 g ai/ha, scale 0 to 100 (0 no effect, 100 complete control)
In short: as §4

ducksalad = test: Test B flooded paddy test; type: in vivo, Heteranthera limosa; settings: 1000 g ai/ha, scale 0 to 100 (0 no effect, 100 complete control)
In short: as §4

barnyardgrass [14] = test: Test B flooded paddy test; type: in vivo, Echinochloa crus-galli; settings: 1000 g ai/ha, scale 0 to 100 (0 no effect, 100 complete control)
In short: as §4

[15] = Postemergence, 500 g ai/ha, 0 to 100 scale, 0 no effect, 100 complete control
[16] = Postemergence, 2000 g ai/ha, 0 to 100 scale, 0 no effect, 100 complete control
[17] = Preemergence, 2000 g ai/ha, visual rating, 0 to 100 scale (0 no effect, 100 complete control)
[18] = preemergence, 500 g ai/ha, visual injury, 0 to 100 scale (0 no effect, 100 complete control)
[19] = 125 g ai/ha, 0 = no effect, 100 = complete control, preemergence
[20] = 125 g ai/ha, visual rating, scale 0 (no effect) to 100 (complete control)
[21] = 500 g ai/ha, visual rating, 0 = no effect, 100 = complete control, preemergence
[22] = 500 g ai/ha, scale 0 to 100, 0 is no effect, 100 is complete control

`C#CCNC(=O)c1cncc(NC(=O)c2cc(C(C)(C)C)nn2CC)n1` [Compound 289] was tested, and the “Barnyardgrass plant response rating” value (barnyardgrass [1]; [15]) was 10, the “Plant response rating, Barnyardgrass” value (barnyardgrass [1]; [16]) was 40 and the “Barnyardgrass plant response rating” value (barnyardgrass [1]; [17]) was 50. The “Barnyardgrass plant response rating” value (barnyardgrass [1]; [18]) was 0, the “Crabgrass, Large plant response rating” value (large crabgrass [2]; [15]) was 20 and the “Plant response rating, Crabgrass, Large” value (large crabgrass [2]; [16]) was 20. For the same molecule, the “Crabgrass, Large plant response rating” value (large crabgrass [2]; [17]) was 55, the “Crabgrass, Large plant response rating” value (large crabgrass [2]; [18]) was 0 and the “Foxtail, Giant plant response rating” value (giant foxtail [3]; [15]) was 10. The “Plant response rating, Foxtail, Giant” value (giant foxtail [3]; [16]) was 70, the “Foxtail, Giant plant response rating” value (giant foxtail [3]; [17]) was 40 and the “Foxtail, Giant plant response rating” value (giant foxtail [3]; [18]) was 10. The “Morningglory plant response rating” value (morningglory [4]; [15]) was 10, the “Plant response rating, Morningglory” value (morningglory [4]; [16]) was 20 and the “Morningglory plant response rating” value (morningglory [4]; [17]) was 15. For the same molecule, the “Morningglory plant response rating” value (morningglory [4]; [18]) was 0, the “Pigweed plant response rating” value (redroot pigweed; [15]) was 20 and the “Plant response rating, Pigweed” value (redroot pigweed; [16]) was 50. The “Pigweed plant response rating” value (redroot pigweed; [17]) was 75, the “Pigweed plant response rating” value (redroot pigweed; [18]) was 0 and the “Velvetleaf plant response rating” value (velvetleaf [5]; [15]) was 0. For the same molecule, the “Plant response rating, Velvetleaf” value (velvetleaf [5]; [16]) was 5, the “Velvetleaf plant response rating” value (velvetleaf [5]; [17]) was 20 and the “Velvetleaf plant response rating” value (velvetleaf [5]; [18]) was 0. The “Barnyardgrass plant response rating (0 to 100 scale)” value (barnyardgrass [6]; [19]) was 0, the “Barnyardgrass plant response rating” value (barnyardgrass [6]; [20]) was 0 and the “Plant response rating, Barnyardgrass” value (barnyardgrass [6]; [21]) was 0. The “Barnyardgrass plant response rating” value (barnyardgrass [6]; [22]) was 0, the “Surinam Grass plant response rating (0 to 100 scale)” value (Surinam grass; [19]) was 0 and the “Surinam Grass plant response rating” value (Surinam grass; [20]) was 0. The “Plant response rating, Surinam Grass” value (Surinam grass; [21]) was 0, the “Surinam Grass plant response rating” value (Surinam grass; [22]) was 0 and the “Cocklebur plant response rating (0 to 100 scale)” value (cocklebur; [19]) was 0. The “Cocklebur plant response rating” value (cocklebur; [20]) was 0, the “Plant response rating, Cocklebur” value (cocklebur; [21]) was 0 and the “Cocklebur plant response rating” value (cocklebur; [22]) was 0. For the same molecule, the “Corn plant response rating (0 to 100 scale)” value (corn; [19]) was 0, the “Corn plant response rating” value (corn; [20]) was 0 and the “Plant response rating, Corn” value (corn; [21]) was 0. The “Corn plant response rating” value (corn; [22]) was 0, the “Crabgrass, Large plant response rating (0 to 100 scale)” value (large crabgrass [7]; [19]) was 0 and the “Crabgrass, Large plant response rating” value (large crabgrass [7]; [20]) was 0. For the same molecule, the “Plant response rating, Crabgrass, Large” value (large crabgrass [7]; [21]) was 20, the “Crabgrass, Large plant response rating” value (large crabgrass [7]; [22]) was 0 and the “Foxtail, Giant plant response rating (0 to 100 scale)” value (giant foxtail [8]; [19]) was 0. The “Foxtail, Giant plant response rating” value (giant foxtail [8]; [20]) was 20, the “Plant response rating, Foxtail, Giant” value (giant foxtail [8]; [21]) was 0 and the “Foxtail, Giant plant response rating” value (giant foxtail [8]; [22]) was 60. For the same molecule, the “Lambsquarters plant response rating (0 to 100 scale)” value (lambsquarters; [19]) was 0, the “Lambsquarters plant response rating” value (lambsquarters; [20]) was 0 and the “Plant response rating, Lambsquarters” value (lambsquarters; [21]) was 100. The “Lambsquarters plant response rating” value (lambsquarters; [22]) was 30, the “Morningglory plant response rating (0 to 100 scale)” value (morningglory [9]; [19]) was 0 and the “Morningglory plant response rating” value (morningglory [9]; [20]) was 0. For the same molecule, the “Plant response rating, Morningglory” value (morningglory [9]; [21]) was 0, the “Morningglory plant response rating” value (morningglory [9]; [22]) was 0 and the “Pigweed plant response rating (0 to 100 scale)” value (pigweed; [19]) was 0. The “Pigweed plant response rating” value (pigweed; [20]) was 10, the “Plant response rating, Pigweed” value (pigweed; [21]) was 100 and the “Pigweed plant response rating” value (pigweed; [22]) was 20. The “Rice plant response rating (0 to 100 scale)” value (rice [10]; 125 g ai/ha) was 0, the “Plant response rating, Rice” value (rice [10]; 500 g ai/ha, visual rating) was 0 and the “Velvetleaf plant response rating” value (velvetleaf [11]; [20]) was 0. For the same molecule, the “Plant response rating, Velvetleaf” value (velvetleaf [11]; [21]) was 0, the “Velvetleaf plant response rating” value (velvetleaf [11]; [22]) was 10 and the “Blackgrass plant response rating” value (blackgrass; [20]) was 10. For the same molecule, the “Blackgrass plant response rating” value (blackgrass; [22]) was 10, the “Wheat plant response rating” value (wheat; [20]) was 20 and the “Wheat plant response rating” value (wheat; [22]) was 20. The “Oat, Wild plant response rating” value (wild oat; [20]) was 20, the “Oat, Wild plant response rating” value (wild oat; [22]) was 30 and the “Rice plant response rating” value (rice [12]) was 0. For the same molecule, the “Sedge, Umbrella plant response rating” value [13] was 0, the “Ducksalad plant response rating” value (ducksalad) was 0 and the “Barnyardgrass plant response rating” value (barnyardgrass [14]) was 0.
